Laboratory results from US20100273814A1, “((PHENYL)IMIDAZOLYL)METHYLHETEROARYL COMPOUNDS” (priority 2007, published 2010).
Read-outs that look alike come from different tables or passages of the source.

Columns and labels:
Type in all cases: cell-based
[1] = molecular target: T1, alpha2B receptor (Homo sapiens, UniProt P18089); experiment: Receptor Selection and Amplification Technology (RSAT) assay, alpha2B; settings: for Alpha 2B intrinsic activity (efficacy): ratio of maximal effect to that of standard full agonist brimonidine (UK14304), value in brackets
T1 construct: expressed in transfected cells; host or cells: NIH-3T3 cells
T1 sequence (P18089 1-450): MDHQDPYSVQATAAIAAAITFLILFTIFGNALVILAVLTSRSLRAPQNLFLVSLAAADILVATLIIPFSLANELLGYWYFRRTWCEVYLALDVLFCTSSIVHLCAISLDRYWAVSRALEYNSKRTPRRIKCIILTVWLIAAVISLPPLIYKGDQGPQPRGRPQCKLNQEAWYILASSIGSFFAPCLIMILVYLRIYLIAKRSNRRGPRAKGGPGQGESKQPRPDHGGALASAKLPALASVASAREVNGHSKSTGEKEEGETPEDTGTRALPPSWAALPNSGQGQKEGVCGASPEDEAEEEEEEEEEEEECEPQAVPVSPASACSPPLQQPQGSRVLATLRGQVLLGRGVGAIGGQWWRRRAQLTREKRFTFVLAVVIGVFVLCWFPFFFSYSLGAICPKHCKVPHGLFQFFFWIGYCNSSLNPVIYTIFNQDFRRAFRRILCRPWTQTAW
Protocol: (§1) Receptor Selection and Amplification Technology (RSAT) Assay
(§2) The RSAT assay measures a receptor-mediated loss of contact inhibition that results in selective proliferation of receptor-containing cells in a mixed population of confluent cells. The increase in cell number is assessed with an appropriate transfected marker gene such as β-galactosidase, the activity of which can be easily measured in a 96-well format. Receptors that activate the G protein, Gq, elicit this response. Alpha2 receptors, which normally couple to Gi, activate the RSAT response when coexpressed with a hybrid Gq protein that has a Gi receptor recognition domain, called Gq/i5.
(§3) NIH-3T3 cells are plated at a density of 2×10^6 cells in 15 cm dishes and maintained in Dulbecco's modified Eagle's medium supplemented with 10% calf serum. One day later, cells are cotransfected by calcium phosphate precipitation with mammalian expression plasmids encoding p-SV-β-galactosidase (5-10 μg), receptor (1-2 μg) and G protein (1-2 μg). 40 μg salmon sperm DNA may also be included in the transfection mixture. Fresh media is added on the following day and 1-2 days later, cells are harvested and frozen in 50 assay aliquots. Cells are thawed and […] added to 100 aliquots of various concentrations of drugs in triplicate in 96-well dishes. Incubations continue 72-96 hr at 37° C. After washing with phosphate-buffered saline, β-galactosidase enzyme activity is determined by adding 200 μl of the chromogenic substrate (consisting of 3.5 mM o-nitrophenyl-β-D-galactopyranoside and 0.5% nonidet P-40 in phosphate buffered saline), incubating overnight at 30° C. and measuring optical density at 420 nm. The absorbance is a measure of enzyme activity, which depends on cell number and reflects a receptor-mediated cell proliferation. The efficacy or intrinsic activity is calculated as a ratio of the maximal effect of the drug to the maximal effect of a standard full agonist for each receptor subtype. Brimonidine, also called UK14304, the chemical structure of which is shown below, is used as the standard agonist for the alpha2A, alpha2B and alpha2C receptors. The EC50 is the concentration at which the drug effect is half of its maximal effect.
(§4) EC50 values are nanomolar. ND stands for “not determinable” at concentrations less than 10 micromolar. IA stands for “intrinsic activity.”

[2] = molecular target: T2, alpha2A receptor (Homo sapiens, UniProt P08913); experiment: Receptor Selection and Amplification Technology (RSAT) assay, alpha2A; settings: for Alpha 2A intrinsic activity (efficacy): ratio of maximal effect to that of standard full agonist brimonidine (UK14304), value in brackets
T2 construct: expressed in transfected cells; host or cells: NIH-3T3 cells
T2 sequence (P08913 1-465): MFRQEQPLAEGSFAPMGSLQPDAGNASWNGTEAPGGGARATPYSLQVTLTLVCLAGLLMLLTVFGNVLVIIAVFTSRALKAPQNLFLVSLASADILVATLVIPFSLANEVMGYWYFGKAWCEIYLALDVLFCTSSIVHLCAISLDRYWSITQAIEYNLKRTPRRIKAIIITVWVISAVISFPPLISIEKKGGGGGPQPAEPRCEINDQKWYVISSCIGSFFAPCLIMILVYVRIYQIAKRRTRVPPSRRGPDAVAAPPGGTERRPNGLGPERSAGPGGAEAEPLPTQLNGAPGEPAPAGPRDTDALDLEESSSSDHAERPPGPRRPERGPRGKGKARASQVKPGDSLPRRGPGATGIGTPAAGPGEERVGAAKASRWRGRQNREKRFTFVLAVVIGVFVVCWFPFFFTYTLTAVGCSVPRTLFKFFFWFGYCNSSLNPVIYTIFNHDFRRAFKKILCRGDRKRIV
Protocol: as §1, §2, §3, §4

[3] = molecular target: T3, alpha2C receptor (Homo sapiens, UniProt P18825); experiment: Receptor Selection and Amplification Technology (RSAT) assay, alpha2C; settings: for Alpha 2C intrinsic activity (efficacy): ratio of maximal effect to that of standard full agonist brimonidine (UK14304), value in brackets
T3 construct: expressed in transfected cells; host or cells: NIH-3T3 cells
T3 sequence (P18825 1-462): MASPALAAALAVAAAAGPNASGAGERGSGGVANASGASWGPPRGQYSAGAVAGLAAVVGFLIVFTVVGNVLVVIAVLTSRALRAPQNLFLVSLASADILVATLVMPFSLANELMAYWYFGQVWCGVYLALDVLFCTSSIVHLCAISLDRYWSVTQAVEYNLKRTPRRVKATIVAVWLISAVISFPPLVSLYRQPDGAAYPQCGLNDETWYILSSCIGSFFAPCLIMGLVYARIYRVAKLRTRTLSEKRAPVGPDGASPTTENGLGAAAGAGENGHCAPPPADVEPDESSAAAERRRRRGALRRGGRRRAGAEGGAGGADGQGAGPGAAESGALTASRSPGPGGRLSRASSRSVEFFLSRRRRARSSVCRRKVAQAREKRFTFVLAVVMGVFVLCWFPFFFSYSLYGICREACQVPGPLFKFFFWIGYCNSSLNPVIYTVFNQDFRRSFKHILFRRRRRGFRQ
Protocol: as §1, §2, §3, §4

[4] = RSAT, transfected NIH-3T3 cells, value outside brackets, read-out: Alpha 2B EC50 (potency)
[5] = RSAT, transfected NIH-3T3 cells, value outside brackets, read-out: Alpha 2A EC50 (potency)
[6] = RSAT, transfected NIH-3T3 cells, value outside brackets, read-out: Alpha 2C EC50 (potency)

Row | Compound | EC50 [1] | Alpha 2B intrinsic activity (efficacy) ([1]; RSAT) | EC50 [2] | Alpha 2A intrinsic activity (efficacy) ([2]; RSAT) | EC50 [3] | Alpha 2C intrinsic activity (efficacy) ([3]; RSAT) | EC50 [1, 4] | EC50 [2, 5] | EC50 [3, 6]
1 | Fc1ccccc1C(c1cccnc1)c1c[nH]cn1 (stereo not shown) [3-((2-fluorophenyl)(1H-imidazol-5-yl)methyl)pyridine] | 0.251 µM | 0.60 | > 10 µM | 0.7 | 2.48 µM | 0.55 | – | – | –
2 | Cc1cccc(C(c2cccnc2)c2c[nH]cn2)c1C (stereo not shown) [3-((2,3-dimethylphenyl)(1H-imidazol-5-yl)methyl)pyridine] | – | 1.25 | – | 0.19 | – | 0.55 | 0.00033 µM | > 10 µM | 0.014 µM
3 | c1ccc(C(c2ccncc2)c2c[nH]cn2)cc1 (stereo not shown) [4-((phenyl)(1H-imidazol-5-yl)methyl)pyridine] | – | 0.69 | – | 0.10 | – | 0.14 | 0.309 µM | > 10 µM | > 10 µM
4 | Fc1c(Cl)cccc1C(c1ccccn1)c1cnc[nH]1 (stereo not shown) [2-((3-chloro-2-fluorophenyl)(1H-imidazol-5-yl)methyl)pyridine] | – | 1.21 | – | 0.07 | – | 0.49 | 0.032 µM | > 10 µM | 0.177 µM
5 | Cc1ccccc1C(c1cccnc1)c1c[nH]cn1 (stereo not shown) [3-((2-methylphenyl)(1H-imidazol-5-yl)methyl)pyridine] | – | 0.61 | – | 0.06 | – | 0.29 | 0.259 µM | > 10 µM | > 10 µM
6 | Fc1cccc(C(c2ccncc2)c2c[nH]cn2)c1 (stereo not shown) [4-((3-fluorophenyl)(1H-imidazol-5-yl)methyl)pyridine] | – | 0.93 | – | 0.04 | – | 0.23 | 0.562 µM | > 10 µM | > 10 µM
7 | Fc1cccc(C(c2ccccn2)c2c[nH]cn2)c1 (stereo not shown) [2-((3-fluorophenyl)(1H-imidazol-5-yl)methyl)pyridine] | – | 0.64 | – | 0.14 | – | 0.25 | 0.273 µM | > 10 µM | > 10 µM
8 | Fc1cccc(C(c2cccnc2)c2c[nH]cn2)c1 (stereo not shown) [3-((3-fluorophenyl)(1H-imidazol-5-yl)methyl)pyridine] | – | 1.01 | – | 0.05 | – | 0.17 | 0.222 µM | > 10 µM | 3.64 µM
9 | Fc1c(C(c2ccncc2)c2c[nH]cn2)cccc1C(F)(F)F (stereo not shown) [4-((2-fluoro-3-(trifluoromethyl)phenyl)(1H-imidazol-5-yl)methyl)pyridine] | – | 1.29 | – | 0.14 | – | 0.29 | 0.045 µM | > 10 µM | > 10 µM
10 | Cc1ccccc1C(c1ccccn1)c1c[nH]cn1 (stereo not shown) [2-((2-methylphenyl)(1H-imidazol-5-yl)methyl)pyridine] | – | 0.92 | – | 0.03 | – | 0.57 | 0.177 µM | > 10 µM | 0.213 µM
11 | Fc1ccccc1C(c1ccccn1)c1c[nH]cn1 (stereo not shown) [2-((2-fluorophenyl)(1H-imidazol-5-yl)methyl)pyridine] | – | 0.56 | – | 0.04 | – | 0.43 | 0.993 µM | > 10 µM | 2.08 µM
12 | Cc1cccc(C(c2ccncc2)c2c[nH]cn2)c1C (stereo not shown) [4-((2,3-dimethylphenyl)(1H-imidazol-5-yl)methyl)pyridine] | – | 1.07 | – | 0.32 | – | 0.49 | 0.0044 µM | 1.51 µM | 0.605 µM
13 | c1ccc(C(c2cccnc2)c2c[nH]cn2)cc1 (stereo not shown) [3-((phenyl)(1H-imidazol-5-yl)methyl)pyridine] | – | 0.72 | – | 0.11 | – | 0.16 | 0.19 µM | > 10 µM | > 10 µM
14 | Fc1cccc(C(c2ccncc2)c2c[nH]cn2)c1F (stereo not shown) [4-((2,3-difluorophenyl)(1H-imidazol-5-yl)methyl)pyridine] | – | 0.70 | – | 0.01 | – | 1.02 | 0.837 µM | > 10 µM | 2.49 µM
15 | Clc1cccc(C(c2ccncc2)c2c[nH]cn2)c1Cl (stereo not shown) [4-((2,3-dichlorophenyl)(1H-imidazol-5-yl)methyl)pyridine] | – | 1.31 | – | 0.18 | – | 0.72 | 0.0032 µM | > 10 µM | 0.097 µM
16 | Fc1c(Cl)cccc1C(c1ccncc1)c1cnc[nH]1 (stereo not shown) [4-((3-chloro-2-fluorophenyl)(1H-imidazol-5-yl)methyl)pyridine] | – | 1.02 | – | 0.09 | – | 0.60 | 0.04 µM | > 10 µM | 0.34 µM
17 | Clc1cccc(C(c2ccccn2)c2c[nH]cn2)c1Cl (stereo not shown) [2-((2,3-dichlorophenyl)(1H-imidazol-5-yl)methyl)pyridine] | 0.0087 µM | .85 | > 10 µM | 0.21 | 0.784 µM | 0.39 | – | – | –
18 | Fc1cccc(C(c2ccccn2)c2c[nH]cn2)c1F (stereo not shown) [2-((2,3-difluorophenyl)(1H-imidazol-5-yl)methyl)pyridine] | – | 1.08 | – | 0.05 | – | 0.16 | 0.405 µM | > 10 µM | > 10 µM
19 | Fc1c(Cl)cccc1C(c1c[nH]cn1)c1cccs1 (stereo not shown) | 0.046 µM | 0.93 | – | 0.21 | – | 0.28 | – | – | –
